This is an account of results in patent US20250333371A1, “COMPOUNDS” (PSYLO PTY LTD, priority 2022, published 2025).

Read-outs that look alike come from different tables or passages of the source.

What all share (assay type): cell-based
One test addresses T1, 5-HT2B (Homo sapiens, UniProt P41595).
T1 construct: host or cells: CHO-K1
The test can be described thus: FLIPR Ca2+ flux functional assay, 5-HT2B receptor (stably transfected CHO-K1). As for the experimental part:
(§1) Activity at 5-HT2A, 5-HT2B and 5-HT2C receptors was determined using a FLIPR Ca^2+ flux assay at WuXi AppTec Co. Ltd. (Hong Kong) Discovery Biology Unit according to their standard protocols. Briefly, stably transfected cells expressing the receptor of interest (HEK293 for 5-HT2A and 5-HT2C; CHO-K1 for 5-HT2B) were grown and plated in a 384 well plate and incubated at 37° C. and 5% CO2 overnight. A 250 mM stock solution of probenecid in FLIPR calcium assay buffer (10 mL) was freshly prepared and combined with a fluorescent dye (Fluo-4 Direct) to give a final assay concentration of 2.5 mM. Reference compounds were 4-fold serially diluted and the screening compounds were 3-fold serially diluted in 100% DMSO for 10 points using Agilent Bravo, and 750 nL was added to a 384 well compound plate using Echo along with 30 μL assay buffer. The fluorescent dye was then added to the assay plate along with assay buffer to a final volume of 40 μL. The cell plate was incubated for 50 min at 37° C. and 5% CO2 and placed into the FLIPR Tetra along with the compound plate. 10 μL of references and compounds were then transferred from the compound plate into the cell plate and the fluorescent signal was read.

For another test, the target named is T2, 5-HT2C (Homo sapiens, UniProt P28335).
T2 construct: host or cells: HEK293
T2 sequence (P28335 33-458): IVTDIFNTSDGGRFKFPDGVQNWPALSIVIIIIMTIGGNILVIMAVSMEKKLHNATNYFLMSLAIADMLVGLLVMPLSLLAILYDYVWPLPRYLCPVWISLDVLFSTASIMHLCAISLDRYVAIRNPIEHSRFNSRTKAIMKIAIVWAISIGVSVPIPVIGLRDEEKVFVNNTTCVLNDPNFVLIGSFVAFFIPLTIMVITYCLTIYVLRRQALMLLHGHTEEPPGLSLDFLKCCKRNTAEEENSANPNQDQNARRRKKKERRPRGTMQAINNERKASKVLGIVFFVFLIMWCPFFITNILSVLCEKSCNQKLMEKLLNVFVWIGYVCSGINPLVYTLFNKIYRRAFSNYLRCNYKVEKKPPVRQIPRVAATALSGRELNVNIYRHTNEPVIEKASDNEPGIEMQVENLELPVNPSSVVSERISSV
In words: FLIPR Ca2+ flux functional assay, 5-HT2C receptor (stably transfected HEK293). As to the method:
as §1
A general note: A change in cytosolic calcium serves as a functional read-out for many receptors and channels.

The target in a further test is T3, 5-HT2A (Homo sapiens, UniProt P28223).
T3 construct: host or cells: HEK293
In words: FLIPR Ca2+ flux functional assay, 5-HT2A receptor (stably transfected HEK293). The following applies: for Emax at 10 µM: no EC50 value given, read-out: 5-HT2A Emax (%) printed as % @ 10 uM. As to the method: as §1

The mark [1] stands for this setting: agonist activity, Ca2+ flux, CHO-K1.
The mark [2] stands for this setting: agonist activity, Ca2+ flux, HEK293.
Setting [3] is: agonist activity, Ca2+ flux, HEK293, read-out: 5-HT2A EC50.
Setting [4] is: agonist activity, Ca2+ flux, CHO-K1, read-out: 5-HT2B EC50.
Where [5] appears, read: agonist activity, Ca2+ flux, HEK293, read-out: 5-HT2C EC50.

T1 sequence (P41595 whole entry): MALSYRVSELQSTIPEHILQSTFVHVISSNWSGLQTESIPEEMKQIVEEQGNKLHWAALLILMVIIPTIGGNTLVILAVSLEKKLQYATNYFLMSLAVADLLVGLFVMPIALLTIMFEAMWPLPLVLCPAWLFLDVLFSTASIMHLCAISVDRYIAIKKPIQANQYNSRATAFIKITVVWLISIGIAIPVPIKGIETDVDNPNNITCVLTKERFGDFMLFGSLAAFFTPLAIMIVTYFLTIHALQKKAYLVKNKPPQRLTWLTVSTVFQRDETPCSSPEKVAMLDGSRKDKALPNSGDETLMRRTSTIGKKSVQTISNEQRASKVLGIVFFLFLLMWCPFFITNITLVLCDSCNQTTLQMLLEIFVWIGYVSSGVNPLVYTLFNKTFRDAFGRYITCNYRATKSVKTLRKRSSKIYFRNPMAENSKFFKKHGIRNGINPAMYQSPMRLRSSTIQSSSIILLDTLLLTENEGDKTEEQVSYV
T3 sequence (P28223 whole entry): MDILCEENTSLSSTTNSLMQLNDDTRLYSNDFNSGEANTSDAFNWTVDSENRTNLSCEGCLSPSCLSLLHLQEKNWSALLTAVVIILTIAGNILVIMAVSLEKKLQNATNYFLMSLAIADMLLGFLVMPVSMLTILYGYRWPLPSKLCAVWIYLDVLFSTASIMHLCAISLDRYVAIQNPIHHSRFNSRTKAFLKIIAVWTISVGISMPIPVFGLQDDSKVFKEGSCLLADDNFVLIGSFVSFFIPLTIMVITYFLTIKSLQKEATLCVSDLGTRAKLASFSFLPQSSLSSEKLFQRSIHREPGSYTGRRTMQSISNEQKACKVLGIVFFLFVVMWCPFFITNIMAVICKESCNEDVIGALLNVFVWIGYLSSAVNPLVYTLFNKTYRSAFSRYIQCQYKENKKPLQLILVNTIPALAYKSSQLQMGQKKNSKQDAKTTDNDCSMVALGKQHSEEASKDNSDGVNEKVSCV

Consider `COc1ccc2cccc(CCN(C)C)c2c1` [Example I-1, 2-(7-methoxynaphthalen-1-yl)-N,N-dimethylethan-1-amine], for which the EC50 (as a rule, the concentration giving half of the maximal effect) at 5-HT2B was above 10000 nM; at 5-HT2C, 33 nM; on 5-HT2A (setting [3]), 96 nM. The values for the Emax on 5-HT2B (setting [1]), on 5-HT2C (setting [2]) and on 5-HT2A (setting [2]) were -0.99%, 82% and 79%, respectively.

As to `CCN(CC)CCc1cccc2ccc(OC)cc12` [Example I-2, N,N-diethyl-2-(7-methoxynaphthalen-1-yl)ethan-1-amine], the results for the half-maximal effective concentration (EC50) on 5-HT2B, at 5-HT2C and at 5-HT2A were above 10000 nM, 733 nM and 360 nM, respectively. Further, the figures for the Emax on 5-HT2B (setting [1]), on 5-HT2C (setting [2]) and at 5-HT2A (setting [2]) were 12%, 88% and 70%, respectively.

For the compound `CCCN(CCC)CCc1cccc2ccc(OC)cc12` [Example I-3, N-(2-(7-methoxynaphthalen-1-yl)ethyl)-N-propylpropan-1-amine], the Emax (usually the greatest response seen or fitted, relative to the assay's reference) on 5-HT2B (setting [1]) is 72%; on 5-HT2C (setting [2]) it was 97%; at 5-HT2A (setting [2]) it was 77%. Besides, the EC50 at 5-HT2B (setting [4]) came to 225 nM; on 5-HT2C (setting [5]), 944 nM; at 5-HT2A (setting [3]), 234 nM.

For the compound `COc1ccc2cccc(CCN(C(C)C)C(C)C)c2c1` [Example I-4, N-isopropyl-N-(2-(7-methoxynaphthalen-1-yl)ethyl)propan-2-amine], the Emax was 123% at 5-HT2B (setting [1]), 99% at 5-HT2C (setting [2]) and 111% on 5-HT2A (setting [2]). Further, the EC50 on 5-HT2B (setting [4]) was determined as 1200 nM; at 5-HT2C (setting [5]), 1260 nM; on 5-HT2A (setting [3]), 446 nM.

In the case of `CCN(C)CCc1cccc2ccc(OC)cc12` [Example I-5, N-ethyl-2-(7-methoxynaphthalen-1-yl)-N-methylethan-1-amine], the EC50 on 5-HT2B was above 10000 nM; on 5-HT2C, 43 nM; at 5-HT2A (setting [3]), 86 nM. In addition, the Emax is 17% at 5-HT2B (setting [1]), 94% at 5-HT2C (setting [2]) and 63% at 5-HT2A (setting [2]).

Regarding `CCCN(C)CCc1cccc2ccc(OC)cc12` [Example I-6, N-(2-(7-methoxynaphthalen-1-yl)ethyl)-N-methylpropan-1-amine], the EC50 on 5-HT2B is above 10000 nM; on 5-HT2C it was 79 nM; on 5-HT2A, 125 nM. In addition, the values for the Emax at 5-HT2B (setting [1]), on 5-HT2C (setting [2]) and at 5-HT2A (setting [2]) were 24%, 95% and 81%, respectively.

As to `COc1ccc2cccc(CCN(C)C)c2n1` [Example I-8, 2-(2-methoxyquinolin-8-yl)-N,N-dimethylethan-1-amine], the Emax came to 8% at 5-HT2B (setting [1]) and 87% at 5-HT2C (setting [2]). For the same compound, the EC50 on 5-HT2B (setting [4]) was above 10000 nM; on 5-HT2C (setting [5]), 314 nM. In addition, the Emax at 10 µM at 5-HT2A (HEK293) stood at 24%.

Turning to `COc1cnc2cccc(CCN(C)C)c2c1` [Example I-9, 2-(3-methoxyquinolin-5-yl)-N,N-dimethylethan-1-amine], the Emax on 5-HT2B (setting [1]) turned out to be 1%; on 5-HT2C (setting [2]), 65%; at 5-HT2A (setting [2]), 39%. In addition, the EC50 was above 10000 nM at 5-HT2B (setting [4]), 2390 nM at 5-HT2C (setting [5]) and 1840 nM at 5-HT2A (setting [3]).

For `COc1cccc2cccc(CCN(C)C)c12` [Example I-13, 2-(8-methoxynaphthalen-1-yl)-N,N-dimethylethan-1-amine], the EC50 at 5-HT2B is above 10000 nM; at 5-HT2C it was 582 nM; at 5-HT2A, 138 nM. Besides, the Emax on 5-HT2B (setting [1]) worked out at 5%; on 5-HT2C (setting [2]), 58%; on 5-HT2A (setting [2]), 49%.

As to `COc1cccc(CNCCc2cccc3ccc(OC)cc23)c1` [Example I-17, N-(3-methoxybenzyl)-2-(7-methoxynaphthalen-1-yl)ethan-1-amine], the figures for the Emax on 5-HT2C (setting [2]) and at 5-HT2A (setting [2]) were 97% and 84%, respectively. Further, the figures for the EC50 at 5-HT2C (setting [5]) and on 5-HT2A (setting [3]) were 18 nM and 92 nM, respectively.

Regarding `CN(C)CCc1cccc2cccc(O)c12` [Example I-21, 8-(2-(dimethylamino)ethyl)naphthalen-1-ol], the values for the EC50 on 5-HT2C and at 5-HT2A (setting [3]) were 12 nM and 53 nM, respectively. In addition, the Emax amounted to 90% on 5-HT2C (setting [2]) and 73% at 5-HT2A (setting [2]).

`CCN(CC)CCc1cccc2cccc(OC)c12` [Example I-22, N,N-diethyl-2-(8-methoxynaphthalen-1-yl)ethan-1-amine]: the EC50 on 5-HT2B is above 10000 nM; at 5-HT2C, 157 nM; on 5-HT2A, 457 nM. Further, the Emax at 5-HT2B (setting [1]) worked out at 34%; on 5-HT2C (setting [2]) it was 95%; at 5-HT2A (setting [2]), 85%.

Take `CCN(C)CCc1cccc2cccc(O)c12` [Example I-26, 8-(2-(methyl(ethyl)amino)ethyl)naphthalen-1-ol]: the values for the EC50 on 5-HT2C and on 5-HT2A (setting [3]) were 15 nM and 41 nM, respectively. Also, the Emax at 5-HT2C (setting [2]) worked out at 86%; at 5-HT2A (setting [2]), 68%.

Take `CC(C)N(C)CCc1cccc2cccc(O)c12` [Example I-29, 8-(2-(methyl(isopropyl)amino)ethyl)naphthalen-1-ol]: the EC50 at 5-HT2C came out at 54 nM; at 5-HT2A (setting [3]), 36 nM. Besides, the Emax on 5-HT2C (setting [2]) came to 84%; at 5-HT2A (setting [2]), 79%.

With `COc1cccc2cccc(CCN(C)C3CC3)c12` [Example I-30, N-(2-(8-methoxynaphthalen-1-yl)ethyl)-N-methylcyclopropanamine], the Emax worked out at 60% at 5-HT2C (setting [2]) and 48% at 5-HT2A (setting [2]). Besides, the results for the EC50 at 5-HT2C (setting [5]) and at 5-HT2A (setting [3]) were 409 nM and 496 nM, respectively.

For `CN(CCc1cccc2cccc(O)c12)C1CC1` [Example I-31, 8-(2-(cyclopropyl(methyl)amino)ethyl)naphthalen-1-ol], the figures for the Emax at 5-HT2C (setting [2]) and at 5-HT2A (setting [2]) were 57% and 64%, respectively. In addition, the concentration giving a half-maximal response (EC50) on 5-HT2C (setting [5]) worked out at 123 nM; at 5-HT2A (setting [3]), 60 nM.

For the compound `CN(C)CCc1cccc2ccc(Cl)cc12` [Example I-32, 2-(7-chloronaphthalen-1-yl)-N,N-dimethylethan-1-amine], the EC50 on 5-HT2C amounted to 61 nM; on 5-HT2A it was 240 nM. Moreover, the Emax is 87% at 5-HT2C (setting [2]) and 63% at 5-HT2A (setting [2]).

For the compound `CCN(C)CCc1cccc2ccccc12` [Example I-33, N-ethyl-N-methyl-2-(naphthalen-1-yl)ethan-1-amine], the EC50 was found to be 115 nM on 5-HT2C and 204 nM at 5-HT2A. Also, the Emax on 5-HT2C (setting [2]) was 67%; on 5-HT2A (setting [2]), 58%.

Turning to `CN(C)CCc1cccc2ccc(F)cc12` [Example I-38, 2-(7-fluoronaphthalen-1-yl)-N,N-dimethylethan-1-amine], the EC50 on 5-HT2C is 46 nM; on 5-HT2A, 245 nM. Further, the Emax at 5-HT2C (setting [2]) was 83%; on 5-HT2A (setting [2]), 66%.

Turning to `CCN(C)CCc1cccc2ccc(F)cc12` [Example I-39, N-ethyl-2-(7-fluoronaphthalen-1-yl)-N-methylethan-1-amine], the EC50 on 5-HT2C amounted to 33 nM; on 5-HT2A, 168 nM. Besides, the Emax on 5-HT2C (setting [2]) is 93%; at 5-HT2A (setting [2]), 58%.

`CC(C)N(C)CCc1cccc2ccc(F)cc12` [Example I-40, N-(2-(7-fluoronaphthalen-1-yl)ethyl)-N-methylpropan-2-amine]: the values for the EC50 on 5-HT2C and on 5-HT2A were 120 nM and 378 nM, respectively. Moreover, the Emax at 5-HT2C (setting [2]) was determined as 84%; at 5-HT2A (setting [2]), 68%.

In the case of `CN(CCc1cccc2ccc(F)cc12)C1CC1` [Example I-41, N-(2-(7-fluoronaphthalen-1-yl)ethyl)-N-methylcyclopropanamine], the Emax at 5-HT2C (setting [2]) came to 80%; on 5-HT2A (setting [2]) it was 33%. Also, the EC50 on 5-HT2C (setting [5]) came to 150 nM; on 5-HT2A (setting [3]), 1020 nM.

Regarding `COc1cccc2c(CCN(C)C)cccc12` [Example I-50, 2-(5-methoxynaphthalen-1-yl)-N,N-dimethylethan-1-amine], at 5-HT2A (HEK293), the Emax at 10 µM is 28%.

In the case of `COc1cccc2c(CCN)cccc12` [Example I-52, 2-(5-methoxynaphthalen-1-yl)ethan-1-amine], the figures for the EC50 on 5-HT2C and on 5-HT2A were 289 nM and 295 nM, respectively. Also, the Emax at 5-HT2C (setting [2]) was determined as 91%; on 5-HT2A (setting [2]), 79%.

In the case of `NCCc1cccc2ccc(F)cc12` [Example I-53, 2-(7-fluoronaphthalen-1-yl)ethan-1-amine], the figures for the concentration giving a half-maximal response (EC50) on 5-HT2C and on 5-HT2A were 1 nM and 34 nM, respectively. The Emax at 5-HT2C (setting [2]) worked out at 97%; at 5-HT2A (setting [2]) it was 83%.
